Laboratory results reported in US20060194230A1, “Genetic markers associated with benign prostatic hyperplasia” (BAYLOR COLLEGE OF MEDICINE, priority 2005, published 2006).

Assays:
[1] = system: prostate transition zone tissue; assay: Microarray (Affymetrix U133 Plus 2.0) gene expression in prostates of patients treated with finasteride, tamsulosin or both before radical prostatectomy (Table 7); format: in vivo, human; conditions: patients treated 2, 4 or 6 weeks before prostatectomy; minus sign = down regulation
Experimental: In non-limiting exemplary embodiments of the invention, a randomized, open-label, single-center study was performed to determine the spatio-temporal changes in gene expression within the prostate of patients who receive 0.4 mg of Flomax® (tamsulosin) capsules daily, 5 mg of Proscar® (finasteride) tablets daily, or both for either 6, 4, or 2 weeks prior to radical prostatectomy. Tissue samples from radical prostatectomy specimens were obtained under an ongoing IRB-approved protocol (H-1158). Zone-specific tissue samples from patients undergoing radical prostatectomy for clinically localized prostate cancer were harvested and frozen in liquid nitrogen for later analysis. In addition to prostate cancer tissue samples, samples from the transition zone from these patients have also been harvested. Participants were randomly allocated to one of three drug treatment arms, after being categorized into one of three groups according to the duration from enrollment date to scheduled surgery date. BPH related symptoms were assessed using self-administered BPH symptom questionnaires at day of enrollment and every 2 weeks (no clinic visit required) until surgery. Medication compliance is assessed at the time of radical prostatectomy. FIG. 1 illustrates an exemplary randomized block design with variable block size for randomly assigning participants to nine treatment groups. After standard quality control analysis of extracted mRNA, 20 samples from patient prostates treated with either finasteride, tamsulosin, or both drugs together for 2, 4, or 6 weeks, were subjected to microarray chip hybridization (in conjunction with the Baylor College of Medicine Microarray Core Facility). In Table 6, patients were treated with the 5-alpha reductase inhibitor, Finasteride (FIN), or the alpha-1 adrenergic receptor antagonist, Tamsulosin (TAM), or both drugs together (FIN+TAM) for the times indicated prior to prostatectomy. Samples were used in Affymetrix U133 Plus 2.0 microarray analysis as shown. Through this analysis, a number of genes (listed in Table 7) were identified whose expression was modulated by drug treatment. These genes are associated with inflammatory pathways (an exemplary embodiment of which is provided in FIG. 2), Wnt signaling pathway (an exemplary embodiment of which is provided in FIG. 3); cell signaling and cell cycle regulatory pathway (an exemplary embodiment of which is provided in FIG. 4), or extracellular matrix remodeling. Although several of these genes have previously been implicated in prostate cancer progression, they have not been described in connection with progression of BPH or in connection with the exemplary drug treatment regimes described above. In Table 7, there are polynucleotides showing 1.3-77 fold changes in expression level after drug treatment. Down regulation after drug treatment is signified by “-” in front of the fold change. In particular embodiments, the information may be obtained at particular timepoints following the onset of therapy, such as about 1 day, 2 days, 3 days, 4 days, 5 days, 6 days, 1 week, 2 weeks, 3 weeks, 4 weeks, 5 weeks, 6 weeks, 7 weeks, 8 weeks, or combinations thereof, or more or less, for example. In the specific embodiments wherein more than one timepoint is evaluated, an average of the timepoints may be obtained.

TZ BPH prostate tissue = assay: Microarray gene expression in TZ BPH nodular tissue of drug treated patients, dChip/ANOVA analysis (Table 11); format: in vivo, human; conditions: for expression of the five markers MIG (CXCL9), IP 10 (CXCL10), I-TAC (CXCL11), Contactin-1 (CNTN1), Dickkopf-3 (DKK3): TZ BPH tissue from treated patients versus untreated BPH tissue
From the text: In specific embodiments of the present invention, the inventors employed the exemplary Affymetrix U133 Plus 2.0 whole genome microarrays to profile gene expression in the transition zone (TZ) of small (≦30 g) and big (≧70 g) prostates. In addition, they also profiled gene expression changes in TZ benign prostatic hyperplasia (BPH) tissue from patients treated with α1-receptor blockade (tamsulosin), 5α-reductase type II inhibition (finasteride), or both medications combined. Integrating the results from these profiles led to the discovery of 5 exemplary polynucleotides that in specific embodiments are diagnostic and/or prognostic biomarkers for BPH. These exemplary markers include the three interferon inducible pro-inflammatory chemokines, MIG (CXCL9), IP 10 (CXCL10), and I-TAC (CXCL11), the adhesion molecule Contactin-1 (CNTN1), the Wnt pathway signaling inhibitor Dickkopf-3 (DKK3), and any combination thereof. […] In further specific embodiments, the mechanisms by which these inflammatory BPH markers are induced and their influence on prostate hyperplasia is determined.
To address the second specific embodiment, patients awaiting radical prostatectomy were given a standard therapeutic course of tamsulosin, finasteride or both tamsulosin and finasteride for 2, 4, or 6 weeks prior to surgery. TZ BPH nodular tissue was isolated post surgery. Total RNA was purified from 24 samples from individual patients and analyzed using Affymetrix U133 Plus 2.0 microarrays. Of the 24 arrays run on drug treated patient prostates, 7 were ultimately excluded from the final analysis due poor signal quality within the arrays.
Expression levels from drug treated prostate tissue were analyzed with dChip. Comparison of changes in gene expression between drugs and between time of therapy was performed by ANOVA. This initial analysis yielded 3568 genes with significant a difference (p≦0.01) in at least 1 comparison. […] Genes regulated by drug treatment were grouped by pathway or common function and those showing multiple changes in expression are shown in Table 11.

prostate RNA samples = assay: Real-time quantitative RT-PCR validation in prostate samples from drug treated patients; format: in vivo, human; conditions: BPH nodules, drug treatment versus no drug
Experimental: To further refine the list of genes profiled in the microarray studies, the differential expression of 30 of these genes were tested by real-time quantitative RT-PCR (Q-RT-PCR). Since Q-RT-PCR is based on the detection of small amplimers (80-150 base pairs) it. is less affected by RNA degradation than microarrays. This allowed the inventors to used a larger sample set of prostate RNA than were included in the microarray analyses. The inventors tested […] small and 10 big prostate samples (including the 15 samples from the array analysis) and 24 samples from drug treated patients (10 treated with finasteride, 7 treated with tamsulosin, and 7 treated with both drugs). Individual comparisons were made between small and big prostates and between no drug (all 18 small and big samples) and drug treatments for each therapy drug condition without consideration of the treatment duration. Several groups of genes validated with significant differences by Q-RT-PCR between small and big prostate and/or those regulated by at least one drug treatment. The three pro-inflammatory chemokines CXCL9 (MIG), CXCL10 (IP-10), and CXCL11 (I-TAC) are best known for production by monocytes as chemotactic agents for T cells (Kim and Broxmeyer, 1999). […]

[2] = system: hyperplastic prostatic tissue; conditions: cited from earlier work
prostate cell lines [3] = assay: Induction of potential BPH markers in prostate cell lines cultured with androgen or inflammatory agents; format: cell-based, human; conditions: non-cancer prostate cell lines cultured in the presence of the agent
Experimental: To confirm the expression of CXCL9, 10 and 11, contactin 1 and CXCR3 in prostate tissue, the present inventors examined several non-cancer prostate cell lines for these markers. The prostate epithelial cells RWPE-1 and PWR-1E are androgen responsive nomal or hyperplastic cells transformed with HPV1828, 29. The epithelial cell line BPH 130 is originated from BPH tissue transformed with SV40 T antigen. […] Cells were cultured in their prescribed media and were fixed, permeabilized and stained by standard methods and analyzed by single color flow cytometry. […] To determine if prostate cell expression of CXCL chemokines was responsive to interferon stimulation, stromal and epithelial cell lines were cultured in the presence of IFNγ. Chemokine induction was measured by Q-RT-PCR and is shown as fold induction over basal expression in untreated cells (FIG. 12).

prostate cell lines [4] = format: cell-based, human; conditions: 4 prostate cell lines, with or without 100 U/ml IFNγ, Q-RT-PCR
Experimental: 4 prostate cell lines were cultured in media with or without 100 U/ml IFNγ. Chemokine expression was determined by Q-RT-PCR and induction calculated using the 2^−ΔΔCt method compared to untreated cells.
To confirm the expression of CXCL9, 10 and 11, contactin 1 and CXCR3 in prostate tissue, the present inventors examined several non-cancer prostate cell lines for these markers. The prostate epithelial cells RWPE-1 and PWR-1E are androgen responsive nomal or hyperplastic cells transformed with HPV1828, 29. The epithelial cell line BPH 130 is originated from BPH tissue transformed with SV40 T antigen. The cell lines HTS-2T and HPS-19B are primary prostate stromal cell lines from TZ and PZ, respectively (Singh et al., 2004). Cells were cultured in their prescribed media and were fixed, permeabilized and stained by standard methods and analyzed by single color flow cytometry. The chemokines CXCL9, 10 and 11 were present in all cells tested as was contactin 1 (FIG. 11). DKK3 was not tested for lack of a suitable antibody for flow cytometric analysis. CXCR3 was highly expressed in all the cells. […] Chemokine induction was measured by Q-RT-PCR and is shown as fold induction over basal expression in untreated cells (FIG. 12). […]

[5] = treatment with drug between 2 and 6 weeks, TZ BPH tissue

## CC(C)(C)NC(=O)[C@H]1CC[C@H]2[C@@H]3CC[C@H]4NC(=O)C=C[C@]4(C)[C@H]3CC[C@]12C [Finasteride, finasteride]
[1]
  CKTSF1B1 (Gremlin) expression fold change after drug treatment: −4.10 fold
  CXCL9 expression fold change after drug treatment: −2.85 fold
  CXCL10 expression fold change after drug treatment: −2.01 fold
  CXCL11 expression fold change after drug treatment: −2.62 fold
  CyclophilinC expression fold change after drug treatment: −2.52 fold
  DKK3 expression fold change after drug treatment: −2.28 fold
  Frizzled 10 expression fold change after drug treatment: −2.45 fold
  HLA-DP expression fold change after drug treatment: −2.29 fold
  HS3ST3B1 expression fold change after drug treatment: −2.29 fold
  KLK4 expression fold change after drug treatment: −3.47 fold
  ORM1 expression fold change after drug treatment: 2.38 fold
  SPROUTY2 expression fold change after drug treatment: −1.94 fold
  VEGF expression fold change after drug treatment: −2.15 fold
  WIF1 expression fold change after drug treatment: −7.53 fold
  ZNF36 expression fold change after drug treatment: −1.55 fold
TZ BPH prostate tissue
  expression of the five markers MIG (CXCL9), IP 10 (CXCL10), I-TAC (CXCL11), Contactin-1 (CNTN1), Dickkopf-3 (DKK3): decreased
TZ BPH prostate tissue; [5]
  CKTSF1B1 (Gremlin) differential gene expression: −4.10 fold
  CTNNB1 differential gene expression: 2.26 fold
  CXCL9 differential gene expression: −3.61 fold
  Frizzled 10 differential gene expression: −2.45 fold
  HLA-DP differential gene expression: −2.29 fold
  HS3ST3B1 differential gene expression: −2.29 fold
  KLK4 differential gene expression: −3.47 fold
  ORM1 differential gene expression: 2.38 fold
  VEGF differential gene expression: −2.15 fold
  WIF1 differential gene expression: −7.53 fold
Prostate RNA samples
  expression of chemokines CXCL9 (MIG), CXCL10 (IP-10), CXCL11 (I-TAC): decreased
[2]; over the first year, without recurrance of significant prostatic growth
  reduction of prostate growth: ≤ 20%

## C[C@]1(O)CC[C@H]2[C@@H]3CCC4=CC(=O)CCC4=C3C=C[C@@]21C [R1881]
Prostate cell lines [3]
  changes in BPH marker expression (CXCL9, 10, 11, contactin 1, CXCR3): No changes

## COc1cc2nc(N3CCN(C(=O)C4COc5ccccc5O4)CC3)nc(N)c2cc1OC (stereo not shown) [doxazosin]
[2]; alpha blockade
  apoptosis in the stromal compartment of hyperplastic prostatic tissue: increases
  overall re-occurrence rate of BPH: does not decrease

## CCOc1ccccc1OCCN[C@H](C)Cc1ccc(OC)c(S(N)(=O)=O)c1 [Tamsulosin, tamsulosin]
[1]
  CKTSF1B1 (Gremlin) expression fold change after drug treatment: −4.76 fold
  CXCL9 expression fold change after drug treatment: −3.37 fold
  CXCL10 expression fold change after drug treatment: −4.65 fold
  CXCL11 expression fold change after drug treatment: −5.81 fold
  Cbl-b expression fold change after drug treatment: 1.30 fold
  CyclophilinC expression fold change after drug treatment: −1.87 fold
  Dicer 1 expression fold change after drug treatment: 1.30 fold
  Frizzled 10 expression fold change after drug treatment: −1.82 fold
  HLA-DP expression fold change after drug treatment: −2.33 fold
  HS3ST3B1 expression fold change after drug treatment: −2.20 fold
  ORM1 expression fold change after drug treatment: 76.96 fold
  VEGF expression fold change after drug treatment: −2.01 fold
  WIF1 expression fold change after drug treatment: −4.60 fold
TZ BPH prostate tissue
  expression of the five markers MIG (CXCL9), IP 10 (CXCL10), I-TAC (CXCL11), Contactin-1 (CNTN1), Dickkopf-3 (DKK3): decreased
TZ BPH prostate tissue; [5]
  CKTSF1B1 (Gremlin) differential gene expression: −4.76 fold
  CXCL9 differential gene expression: −2.86 fold
  DKK3 differential gene expression: −2.85 fold
  HLA-DP differential gene expression: −2.33 fold
  HS3ST3B1 differential gene expression: −2.20 fold
  ORM1 differential gene expression: 76.96 fold
  VEGF differential gene expression: −2.01 fold
  WIF1 differential gene expression: −4.60 fold
Prostate RNA samples
  expression of chemokines CXCL9 (MIG), CXCL10 (IP-10), CXCL11 (I-TAC): decreased

B1: IFNγ: interferon-γ used to stimulate prostate cell lines, 100 U/ml (protein, UniProt P01579 24-161, looked up)
Interferon gamma: QDPYVKEAENLKKYFNAGHSDVADNGTLFLGILKNWKEESDRKIMQSQIVSFYFKLFKNFKDDQSIQKSVETIKEDMNVKFFNSNKKKRDDFEKLTNYSVTDLNVQRKAIHELIQVMAELSPAAKTGKRKRSQMLFRG
Prostate cell lines [4]
  CXCL chemokine expression in prostate cells: up-regulated
